The values below come from ChEMBL document CHEMBL1136379, “Identification of potent and broad-spectrum antibiotics from SAR studies of a synthetic vancomycin analogue” (2003).

SMILES strings stand for the structures. Values after ≈ are worked out from the molar mass of the structure shown.

What all share (type): functional
Experiment [1] relates to Enterococcus faecium. Put plainly: Minimum inhibitory concentration against vancomycin-resistant Enterococcus faecium.
In experiment [2] the test system is Enterococcus faecium. Put plainly: Compound tested for Susceptibility of vancomycin-resistant Enterococcus faecium.
In experiment [3] the test system is Streptococcus pneumoniae. Put plainly: Compound tested for Susceptibility of Streptococcus pneumoniae.
The subject of experiment [4] is Escherichia coli. The experiment can be described thus: Compound tested for Susceptibility of Escherichia coli (efflux mutant).
The subject of the next experiment is Klebsiella pneumoniae. The experiment can be described thus: Compound tested for Susceptibility of Klebsiella pneumoniae.
In experiment [5] the test system is Enterococcus faecium. The experiment can be described thus: Compound tested for Susceptibility of Enterococcus faecium.
Experiment [6] has as its system Staphylococcus epidermidis. Put plainly: Compound tested for Susceptibility of Methicillin-resistant Staphylococcus epidermidis (MRSE).
For experiment [7], the system named is Haemophilus influenzae. Put plainly: Compound tested for Susceptibility of Haemophilus influenzae (efflux mutant).
The test system of experiment [8] is Escherichia coli. Put plainly: Compound tested for Susceptibility of Escherichia coli.
Experiment [9] concerns Streptococcus pneumoniae. Put plainly: Compound tested for Susceptibility of Streptococcus pneumoniae (Penicillin-intermediate).
In experiment [10] the test system is Haemophilus influenzae. The experiment can be described thus: Compound tested for Susceptibility of Haemophilus influenzae.
Experiment [11] has as its system Staphylococcus aureus. The experiment can be described thus: Compound tested for Susceptibility of Methicillin-resistant Staphylococcus aureus […].
Another experiment concerns Moraxella catarrhalis. Put plainly: Compound tested for Susceptibility of Moraxella catarrhalis.
A further experiment relates to Pseudomonas aeruginosa. The experiment can be described thus: Compound tested for Susceptibility of Pseudomonas aeruginosa.
Another experiment deals with Enterococcus faecalis. Put plainly: Compound tested for Susceptibility of Enterococcus faecalis.
Experiment [12] concerns Staphylococcus aureus. Put plainly: Compound tested for Susceptibility of Staphylococcus aureus.
The test system of experiment [13] is Staphylococcus epidermidis. The experiment can be described thus: Compound tested for Susceptibility of Staphylococcus epidermidis.
The next experiment deals with Streptococcus pyogenes. The experiment can be described thus: Compound tested for Susceptibility of Streptococcus pyogenes.

With `CN[C@H](CC(C)C)C(=O)N[C@@H](CN)C(=O)N[C@@H](Cc1ccccc1)C(=O)N1Cc2[nH]c3ccccc3c2C[C@H]1C(N)=O`, the MIC with Enterococcus faecium [1] is 600 µg/mL (≈ 1040 µM); in the experiment with Enterococcus faecium [2], over 1200 µg/mL.

Consider `CN[C@H](CC(C)C)C(=O)N[C@@H]1Cc2ccc(cc2)Oc2cc(ccc2O)C(C(=O)N[C@@H](CN)C(=O)N[C@@H](Cc2ccccc2)C(=O)N2Cc3[nH]c4ccccc4c3C[C@H]2C(N)=O)NC(=O)[C@H](CC(N)=O)NC1=O` (stereo not given in full), for which the figures for the MIC in the experiment on Enterococcus faecium [1] and against Enterococcus faecium [2] were 300 µg/mL (≈ 300 µM) and 150 µg/mL (≈ 150 µM), respectively.

As to `CN[C@H](CC(C)C)C(=O)N[C@@H]1Cc2ccc(cc2)Oc2cc(ccc2O)C(C(=O)N[C@@H](CN)C(=O)N[C@@H](Cc2ccccc2)C(=O)N2Cc3[nH]c4ccccc4c3C[C@H]2C(=O)NCC(O)CNC(=O)[C@@H]2Cc3c([nH]c4ccccc34)CN2C(=O)[C@H](Cc2ccccc2)NC(=O)[C@H](CN)NC(=O)C2NC(=O)[C@H](CC(N)=O)NC(=O)[C@H](NC(=O)[C@@H](CC(C)C)NC)Cc3ccc(cc3)Oc3cc2ccc3O)NC(=O)[C@H](CC(N)=O)NC1=O` (stereo not given in full) [VANCOMYCIN ANALOGUE], the MIC was 600 µg/mL (≈ 292 µM) in the experiment with Enterococcus faecium [1] and 9 µg/mL (≈ 4.38 µM) in the experiment with Enterococcus faecium [2].

For the compound `CN[C@H](CC(C)C)C(=O)N[C@@H]1Cc2ccc(cc2)Oc2cc(ccc2O)C(C(=O)N[C@@H](CN)C(=O)N[C@@H](Cc2ccccc2)C(=O)N2Cc3[nH]c4ccccc4c3C[C@H]2C(=O)NCCC(O)CCNC(=O)[C@@H]2Cc3c([nH]c4ccccc34)CN2C(=O)[C@H](Cc2ccccc2)NC(=O)[C@H](CN)NC(=O)C2NC(=O)[C@H](CC(N)=O)NC(=O)[C@H](NC(=O)[C@@H](CC(C)C)NC)Cc3ccc(cc3)Oc3cc2ccc3O)NC(=O)[C@H](CC(N)=O)NC1=O` (stereo not given in full), the results for the MIC against Enterococcus faecium [1] and in the experiment with Enterococcus faecium [2] were 600 µg/mL (≈ 288 µM) and 18 µg/mL (≈ 8.64 µM), respectively.

In the case of `CNC(CC(C)C)C(=O)N[C@@H](CN)C(=O)N[C@@H](Cc1ccccc1)C(=O)N1Cc2[nH]c3ccccc3c2C[C@H]1C(=O)NCC(O)CNC(=O)[C@@H]1Cc2c([nH]c3ccccc23)CN1C(=O)[C@H](Cc1ccccc1)NC(=O)[C@H](CN)NC(=O)[C@@H](CC(C)C)NC` (stereo not given in full), the MIC in the experiment with Streptococcus pneumoniae [3] was 16 µg/mL (≈ 13.3 µM); in the experiment with Escherichia coli [4], 16 µg/mL (≈ 13.3 µM); in the experiment on Klebsiella pneumoniae, over 128 µg/mL; in the experiment on Enterococcus faecium [5] it was 4 µg/mL (≈ 3.31 µM); in experiment [6] it was 8 µg/mL (≈ 6.63 µM); against Haemophilus influenzae [7] it was 16 µg/mL (≈ 13.3 µM). Besides, the MIC against Escherichia coli [8] stood at 32 µg/mL (≈ 26.5 µM); against Enterococcus faecium [1] it was 600 µg/mL (≈ 497 µM); against Streptococcus pneumoniae [9], 8 µg/mL (≈ 6.63 µM); against Haemophilus influenzae [10], 96 µg/mL (≈ 79.5 µM); against Staphylococcus aureus [11] it was 32 µg/mL (≈ 26.5 µM); against Moraxella catarrhalis, 8 µg/mL (≈ 6.63 µM). Also, the MIC against Pseudomonas aeruginosa was determined as 128 µg/mL (≈ 106 µM); against Enterococcus faecium [2], 18 µg/mL (≈ 14.9 µM); against Enterococcus faecalis, 8 µg/mL (≈ 6.63 µM); with Staphylococcus aureus [12] it was 16 µg/mL (≈ 13.3 µM); in [13], 24 µg/mL (≈ 19.9 µM); in the experiment with Streptococcus pyogenes, 2 µg/mL (≈ 1.66 µM).

On to `CN[C@@H](CC(C)C)C(=O)N[C@@H]1Cc2ccc(cc2)Oc2cc(ccc2O)C(C(=O)N[C@@H](CN)C(=O)N[C@@H](Cc2ccccc2)C(=O)N2Cc3[nH]c4ccccc4c3C[C@H]2C(=O)NCCCC(O)CCCNC(=O)[C@@H]2Cc3c([nH]c4ccccc34)CN2C(=O)[C@H](Cc2ccccc2)NC(=O)[C@H](CN)NC(=O)C2NC(=O)[C@H](CC(N)=O)NC(=O)[C@H](NC(=O)[C@@H](CC(C)C)NC)Cc3ccc(cc3)Oc3cc2ccc3O)NC(=O)[C@H](CC(N)=O)NC1=O` (stereo not given in full) [VANCOMYCIN ANALOGUE], for which the figures for the MIC against Enterococcus faecium [1] and in the experiment on Enterococcus faecium [2] were 600 µg/mL (≈ 284 µM) and 38 µg/mL (≈ 18 µM), respectively.

Turning to `CN[C@H](CC(C)C)C(=O)N[C@H]1C(=O)N[C@@H](CC(N)=O)C(=O)N[C@H]2C(=O)N[C@H]3C(=O)N[C@H](C(=O)N[C@H](C(=O)O)c4cc(O)cc(O)c4-c4cc3ccc4O)[C@H](O)c3ccc(c(Cl)c3)Oc3cc2cc(c3O[C@@H]2O[C@H](CO)[C@@H](O)[C@H](O)[C@H]2O[C@H]2C[C@](C)(N)[C@H](O)[C@H](C)O2)Oc2ccc(cc2Cl)[C@H]1O` [VANCOMYCIN], the MIC against Enterococcus faecium [1] and with Enterococcus faecium [2] was 600 µg/mL (≈ 414 µM) each time.

In turn, `NC(=O)C[C@@H]1NC(=O)[C@H](NC(=O)OCC2c3ccccc3-c3ccccc32)Cc2ccc(cc2)Oc2c(O)ccc(CC(=O)O)c2NC1=O` displayed an MIC in the experiment on Enterococcus faecium [1] of 300 µg/mL (≈ 451 µM).

Turning to `CC(=O)N[C@@H](CN)C(=O)N[C@@H](Cc1ccccc1)C(=O)N1Cc2[nH]c3ccccc3c2C[C@H]1C(N)=O`, the MIC was 600 µg/mL (≈ 1220 µM) with Enterococcus faecium [1] and 1200 µg/mL (≈ 2450 µM) against Enterococcus faecium [2].

On to `CC(=O)N[C@@H](CN)C(=O)N[C@@H](Cc1ccccc1)C(=O)N1Cc2[nH]c3ccccc3c2C[C@H]1C(=O)NCC(O)CNC(=O)[C@@H]1Cc2c([nH]c3ccccc23)CN1C(=O)[C@H](Cc1ccccc1)NC(=O)[C@H](CN)NC(C)=O`, for which the MIC amounted to 600 µg/mL (≈ 578 µM) with Enterococcus faecium [1] and 18 µg/mL (≈ 17.4 µM) in the experiment with Enterococcus faecium [2].
